Calls of active or inactive are those of the source. For most assays here, no stated cut-off is given here; in the data, actives have a measured EC50 and inactives only a lower limit.
How the values were obtained:
H4 = experiment: Luminescence Cell-Based Dose Response HTS to Identify Activators of 5'UTR Stem-Loop Driven Prion Protein mRNA Translation in H4 Neuroglioblastoma Cells. [Related pubchem assays: 1829 (Project Summary), 1814 (Primary HTS)]; type: functional; conditions: Homo sapiens
[1] = Luminescence Cell-Based Dose Confirmation HTS to Identify Activators of 5'UTR Stem-Loop Driven Alpha-Synuclein mRNA Translation in H4 Neuroglioblastoma Cells. [Related pubchem assays: 1829 (Project Summary), 1814 (Primary HTS)]; type: functional
[2] = Luminescence Cell-Based Dose Response HTS to Identify Activators of Luciferase Translation or Activity in H4 […] Cells. [Related pubchem assays: 1829 (Project Summary), 1814 (Primary HTS)]; type: functional
[3] = growth suppression of PTEN-null colon cells, dose response, cell-based, HCT116 PTEN knockout (AID 1047); type: functional;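 further: HCT116 colon tumor cells with PTEN knocked out; cells exposed to compound for 60 hours before readout; potency for loss of cell viability measured by luminescence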
[4] = growth suppression of beta-catenin-knockout colon cells, dose response, cell-based, HCT116, human colon tumor (AID 1045); type: functional;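 further: HCT116 colon tumor cells with beta catenin knocked out; cells exposed to compound for 60 hours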
[5] = microbe, parasite or virus in culture; type: functional; conditions: Mycobacterium tuberculosis
[6] = target: T1, Rac GTPase-activating protein 1 (Homo sapiens, UniProt Q9H0H5); experiment: MgcRacGAP GTPase-activating activity inhibitors, confirmation, biochemical, ADP Hunter fluorescence, primary and confirmatory (AID 624330); type: functional
T1 sequence (Q9H0H5 whole entry): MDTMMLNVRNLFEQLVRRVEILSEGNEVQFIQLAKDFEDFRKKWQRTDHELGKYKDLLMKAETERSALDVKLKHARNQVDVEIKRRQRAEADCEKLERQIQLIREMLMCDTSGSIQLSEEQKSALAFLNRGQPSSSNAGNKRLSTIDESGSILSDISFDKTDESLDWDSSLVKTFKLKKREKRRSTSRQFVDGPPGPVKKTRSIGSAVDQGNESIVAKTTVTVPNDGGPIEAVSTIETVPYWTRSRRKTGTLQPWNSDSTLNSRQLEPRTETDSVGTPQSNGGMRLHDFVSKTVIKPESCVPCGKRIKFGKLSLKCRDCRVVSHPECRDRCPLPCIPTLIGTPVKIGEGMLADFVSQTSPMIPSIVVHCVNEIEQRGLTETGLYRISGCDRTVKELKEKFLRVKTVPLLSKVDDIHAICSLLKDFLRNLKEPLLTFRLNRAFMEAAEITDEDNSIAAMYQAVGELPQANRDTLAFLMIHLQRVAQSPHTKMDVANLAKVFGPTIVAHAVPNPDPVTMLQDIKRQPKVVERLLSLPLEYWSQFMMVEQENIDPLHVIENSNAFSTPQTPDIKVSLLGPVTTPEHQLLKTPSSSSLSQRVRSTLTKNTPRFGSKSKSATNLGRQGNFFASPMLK

[7] = target: Luciferin 4-monooxygenase (Photinus pyralis, UniProt P08659); experiment: firefly luciferase enzyme inhibitors, dose response, biochemical, luminescence (AID 1891)
[8] = Luminescence Cell-Based Dose Confirmation HTS to Identify Inhibitors of Platelet Dense Granule Release. [Related pubchem assays: 1663 (Primary HTS), 1678 (Summary of Project)]; type: functional
[9] = HEp-2 cell cytotoxicity, dose response, cytotoxicity control for RSV inhibitor project, HTS (AID 2410); type: functional; conditions: human respiratory syncytial virus
[10] = cytotoxicity toward NIH3T3 fibroblasts, dose response, counter-screen, cell-based, ATP luminescence, mouse fibroblasts (AID 2010); type: functional;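 further: cells exposed to compound for about 90 hours before reading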
[11] = inhibitors of intracellular T. cruzi replication, confirmation, NIH3T3 host cells, beta-gal luminescence (AID 2044); type: functional, cell-based;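 further: intracellular parasites grown in NIH/3T3 mouse fibroblasts as host cells; luminescent beta-galactosidase reporter signal from transgenic T. cruzi replicating inside host cells; inhibitors lower the luminescence signal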
[12] = C. albicans growth with fluconazole, confirmation, fluorescence, retest (AID 2467); type: functional, cell-based
[13] = NIH-3T3 fibroblast cytotoxicity, dose response, cytotoxicity control, cell-based, fluorescence, Alamar Blue, secondary assay (AID 2327); type: functional;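 further: NIH-3T3 mouse fibroblasts cultured with fluconazole at 8 µg/mL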

Luciferin 4-monooxygenase, sequence (P08659 whole entry): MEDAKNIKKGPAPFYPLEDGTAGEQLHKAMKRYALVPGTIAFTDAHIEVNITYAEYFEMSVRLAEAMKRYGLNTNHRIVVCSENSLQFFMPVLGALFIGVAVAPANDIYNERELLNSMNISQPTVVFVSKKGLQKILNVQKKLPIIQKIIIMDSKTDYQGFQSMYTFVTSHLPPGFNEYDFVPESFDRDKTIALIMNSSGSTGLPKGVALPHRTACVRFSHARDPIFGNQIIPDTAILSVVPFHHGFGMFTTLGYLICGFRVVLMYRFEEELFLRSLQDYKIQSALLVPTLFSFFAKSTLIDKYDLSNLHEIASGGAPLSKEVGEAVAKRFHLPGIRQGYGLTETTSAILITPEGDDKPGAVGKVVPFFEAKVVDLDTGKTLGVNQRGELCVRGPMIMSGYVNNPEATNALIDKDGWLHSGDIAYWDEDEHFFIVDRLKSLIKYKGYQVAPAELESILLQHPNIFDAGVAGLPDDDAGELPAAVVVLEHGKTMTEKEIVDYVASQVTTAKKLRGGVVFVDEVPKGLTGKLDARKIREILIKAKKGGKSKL

Cc1c(C(=O)OCC(=O)N2C(C)CCCC2C)oc2ccccc12 (centres undefined)
EC50 (H4): 72.9 µM (active)
EC50 [1]: 14.6 µM (active)
EC50 [2]: 28.7 µM (active)

Cc1cc2cc(C)c3nnc(SCC(=O)Nc4ccc(S(=O)(=O)N5CCCCC5)cc4)n3c2cc1C
EC50 [3]: 7.79 µM (active)
EC50 [4]: 7.24 µM (active)

Cc1ccc(C(=O)N2N=C(c3ccc(NS(C)(=O)=O)cc3)CC2c2cccs2)cc1 (centres undefined)
CC50 [5]: > 40 µM (active)

COc1cccc(CNCc2ccco2)c1O
IC50 [6]: 117 µM (active)

CCn1cc(SCC(=O)N2CCOCC2)c2ccccc21
EC50 (H4): > 120 µM (not active)
EC50 [1]: 5.63 µM (active)
EC50 [2]: 82.1 µM (active)

COc1ccc(C(=O)N/N=C/C(=O)c2ccccc2)cc1
EC50 (H4): 6.93 µM (active)
EC50 [1]: 5.67 µM (active)
EC50 [2]: 1.9 µM (active)

N/N=C(\Cc1cscn1)c1ccc(O)cc1O
EC50 [7]: > 112 µM (not active)
IC50 [6]: 53.3 µM (active)
EC50 [8]: 62.6 µM (active)

CN1C(=O)C(CC(=O)Nc2ccccc2F)N(NC(=O)c2ccc(Br)cc2)C1=S (centres undefined)
CC50 [9]: 6.39 µM (active)

COc1ccc(S(=O)(=O)N2CCN(C(=O)c3ccc([N+](=O)[O-])o3)CC2)cc1
EC50 (H4): 7.96 µM (active)
EC50 [10]: > 30 µM (not active)
EC50 [1]: > 120 µM (not active)
EC50 [11]: 0.103 µM (active)
EC50 [2]: 7.51 µM (active)

Cc1ccc(/C=C/C2=NN(Cc3ccccc3Cl)C(=O)CC2)cc1
CC50 [9]: 16.6 µM (active)

C/N=c1\scc(C)n1/N=C/c1cc(Br)c(O)c(Br)c1
IC50 [6]: 77 µM (active)

CCOC(=O)c1sc(NC(=O)Nc2ccc(Cl)cc2)nc1C
EC50 [3]: 63.5 µM (active)
EC50 [4]: 80.8 µM (active)

Cc1ccccc1-c1nnc(SCc2ccccc2)o1
EC50 [1]: 7.97 µM (active)
EC50 [2]: 62.5 µM (active)

COc1ccc(C2Nc3ccc4ccccc4c3-c3c2c(=O)oc2ccccc32)cc1 (centres undefined)
EC50 [10]: > 60 µM (not active)
EC50 [11]: 0.204 µM (active)
EC50 [3]: 9 µM (active)
EC50 [4]: 9.13 µM (active)

COc1cc(/C=N/NC(=O)CCC(=O)Nc2ccc(F)cc2)ccc1O
IC50 [6]: 35.8 µM (active)

CCOc1ccc(-c2c(=O)n(OCc3ccc([N+](=O)[O-])cc3)c3ccccc3[n+]2[O-])cc1
EC50 (H4): > 120 µM (not active)
EC50 [1]: > 120 µM (not active)
EC50 [2]: > 120 µM (not active)

CC(C)c1ccc2c(c1)CCC1C(C)(CN)CCCC21C (centres undefined)
EC50 [12]: > 38 µM (not active)
EC50 [13]: 9.63 µM (inconclusive)
CC50 [5]: 7.48 µM (active)
